Experimental data published in patent US10538516B2, “Oxadiazole derivative and pharmaceutical containing same” (National Center for Geriatrics and Gerontology, priority 2015, dated 2020).
Like-named read-outs stand apart in the source and are kept apart here.

Molecular target: T1, GAβ-dependent amyloid fibril formation (Human Aβ1-40 + GM1-containing liposome) (Homo sapiens, UniProt P05067)
T1 construct: Human Aβ1-40 (cat. #4307-v, prepared by Peptide Institute); purchased Peptide Institute 4307-v
Experiment: Thioflavin T (ThT) assay of GAβ-dependent amyloid fibril formation (Aβ1-40 with GM1-containing liposome)
Assay type: biochemical
Procedure, shortened: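 Human Aβ1-40 (75 μM stock) pre-incubated 10 min at room temperature with compound (75 or 15 μM solution), then GM1-containing cholesterol/sphingomyelin liposome added and incubated 37° C, 18 hours. Fibrils quantified by ThT fluorescence (ex 430/em 490 nm, pH 8.5 glycine buffer); inhibition as ratio to compound-free control.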

[1] = inhibition rate against amyloid fibril formation, final concentration of the compound 25 μM, read-out: Inhibitory activity ABC evaluation
[2] = @25 μM, read-out: ThT Inhibitory activity (% inhibition)

T1 sequence (P05067 672-711 limits assumed): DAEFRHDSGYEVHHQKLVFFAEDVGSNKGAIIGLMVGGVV

| Structure (SMILES) | inhibition at 25 µM [1] [%] | further results |
| --- | --- | --- |
| O=C(N[C@@H](CO)c1nc(-c2ccc3ccccc3n2)no1)c1ccc(F)cc1 [Compound 225, 4-fluoro-N-[(1S)-2-hydroxy-1-[3-(quinolin-2-yl)-1,2,4-oxadiazol-5-yl]ethyl] benzamide] | 40 to 80 |  |
| O=C1CC(c2nc(-c3ccc(OC(F)(F)F)cc3)no2)CN1c1cncc(Cl)c1 (stereo not drawn) [Compound 51, 1-(5-chloropyridin-3-yl)-4-[3-{4-(trifluoro-methoxy)phenyl}-1,2,4-oxadiazol-5-yl]pyrrolidin-2-one] | < 40 |  |
| O=C(N[C@@H](CO)c1nc(-c2ccc(OCC(F)(F)F)cc2)no1)c1ccc(F)cc1 [Compound 216] | < 40 |  |
| O=C1CC(c2nc(-c3ccc(OC(F)(F)F)cc3)no2)CN1c1ccc(F)cc1 (stereo not drawn) [Compound 26, l-(4-fluorophenyl)-4-[3-{4-(trifluoro-methoxy)phenyl}-1,2,4-oxadiazol-5-yl]pyrrolidin-2-one] | 40 to 80 |  |
| O=C(c1ccc(Cl)cn1)N1C[C@H](O)C[C@H]1c1nc(-c2ccc(OC(F)(F)F)cc2)no1 [Compound 60, (5-chloropyridin-2-yl)((2S,4R)-4-hydroxy-2-[3-{4-(trifluoro-methoxy)phenyl}-1,2,4-oxadiazol-5-yl]pyrrolidin-1-yl)methanone] | < 40 |  |
| O=C(NC1(c2nc(-c3ccc(OC(F)(F)F)cc3)no2)CCCC1)c1ccc(Cl)nc1 [Compound 31, 6-chloro-N-(1-[3-{4-(trifluoromethoxy)phenyl}-1,2,4-oxadiazol-5-yl]cyclopentyl) nicotinamide] | < 40 |  |
| O=C(N[C@@H](CO)c1nc(-c2ccc(C(F)(F)F)cc2)no1)c1ccc(Oc2ccccc2)cc1 [Compound 201, N-[(1S)-2-hydroxy-1-{3-[4-(trifluoromethyl)phenyl]-1,2,4-oxadiazol-5-yl}ethyl]-4-phenoxybenzamide] | > 80 |  |
| O=C(N[C@@H](CO)c1nc(-c2cc3ccccc3[nH]2)no1)c1ccc(F)cc1 [Compound 266, 4-fluoro-N-[(1S)-2-hydroxy-1-[3-(1H-indol-2-yl)-1,2,4-oxadiazol-5-yl]ethyl] benzamide] | > 80 |  |
| CC(C)c1ccc(-c2noc([C@H](CO)NC(=O)c3ccccc3)n2)cc1 [Compound 145, N-[(1S)-2-hydroxy-1-{3-[4-(propan-2-yl)phenyl]-1,2,4-oxadiazol-5-yl}ethyl]benzamide] | 40 to 80 |  |
| O=C(N[C@H](CO)c1nc(-c2ccc(C(F)(F)F)cc2)no1)c1ccc(F)cc1 [Compound 212, 4-fluoro-N-[(1R)-2-hydroxy-1-{3-[4-(trifluoromethyl)phenyl]-1,2,4-oxadiazol-5-yl}ethyl]benzamide] | 40 to 80 |  |
| O=C(N[C@@H](CO)c1nc(-c2c[nH]c3cc(F)ccc23)no1)c1ccc(F)cc1 [Compound 260, 4-fluoro-N-[(1S)-1-[3-(6-fluoro-1H-indol-3-yl)-1,2,4-oxadiazol-5-yl]-2-hydroxyethyl] benzamide] | 40 to 80 |  |
| COc1ccc(-c2noc([C@@H](NC(=O)c3ccc(Cl)cc3)[C@@H](C)O)n2)cc1 [Compound 132, 4-chloro-N-((1S,2R)-2-hydroxy-1-(3-(4-methoxy-phenyl)-1,2,4-oxadiazol-5-yl)propyl)benzamide] | > 80 | inhibition at 25 µM (final concentration of the compound 25 μM, ratio of ThT fluorescence intensity with/without compound, 37° C. for 18 hours, read-out: inhibition rate against amyloid fibril formation (inhibitory activity on a scale of A to C)): > 80% |
| O=C(N[C@@H](CO)c1nc(-c2ccc3[nH]cc(F)c3c2)no1)c1ccc(F)cc1 [Compound 194, 4-fluoro-N-[(1S)-1-[3-(3-fluoro-1H-indol-5-yl)-1,2,4-oxadiazol-5-yl]-2-hydroxyethyl] benzamide] | 40 to 80 |  |
| Cc1ccc(-c2noc([C@H](CO)NC(=O)c3ccccc3)n2)cc1 [Compound 143, N-[(1S)-2-hydroxy-1-[3-(4-methylphenyl)-1,2,4-oxadiazol-5-yl]ethyl]benzamide] | > 80 |  |
| O=C(N[C@@H](CO)c1nc(-c2n[nH]c3ccccc23)no1)c1ccc(F)cc1 [Compound 265, 4-fluoro-N-[(1S)-2-hydroxy-1-[3-(1H-indazol-3-yl)-1,2,4-oxadiazol-5-yl]ethyl] benzamide] | 40 to 80 |  |
| O=C(NC(CO)c1nc(-c2ccc(C(F)(F)F)cc2)no1)c1ccc(F)cc1 (stereo in doubt) [Compound 152, 4-fluoro-N-[(1R)-2-hydroxy-1-{3-[4-(trifluoromethyl)phenyl]-1,2,4-oxa-diazol-5-yl}ethyl] benzamide] |  | Inhibitory activity ABC evaluation (inhibition rate against amyloid fibril formation, final concentration of the compound 25 μM, 25 µM): B (40% or more and less than 80% were evaluated as B) |
| O=C(N[C@@H](CO)c1nc(-c2ccc(OC(F)(F)F)cc2)no1)c1cccc(F)c1 [Compound 94, (S)-3-fluoro-N-(2-hydroxy-1-[3-{4-(trifluoromethoxy)phenyl}-1,2,4-oxadiazol-5-yl]ethyl)benzamide] | > 80 |  |

| Structure (SMILES) | inhibition at 25 µM [1] [%] | further results |
| --- | --- | --- |
| O=C(N[C@@H](CO)c1nc(-c2csc3ccccc23)no1)c1ccc(F)cc1 [Compound 230, N-[(1S)-1-[3-(1-benzothiophen-3-yl)-1,2,4-oxadiazol-5-yl]-2-hydroxyethyl]-4-fluorobenzamide] | 40 to 80 | inhibition at 25 µM [2]: 73% |
| NC(Cc1ccc(O)cc1)c1nc(-c2ccc(OC(F)(F)F)cc2)no1 (stereo not drawn) [Compound 38, 4-(2-amino-2-[3-{4-(trifluoromethoxy)phenyl}-1,2,4-oxadiazol-5-yl]ethyl)phenol] | 40 to 80 |  |
| O=C(N[C@@H](CO)c1nc(-c2ccc(Cl)[nH]2)no1)c1ccc(F)cc1 [Compound 251, N-[(1S)-1-[3-(5-chloro-1H-pyrrol-2-yl)-1,2,4-oxadiazol-5-yl]-2-hydroxyethyl]-4-fluorobenzamide] | 40 to 80 |  |
| O=C(N[C@@H](CO)c1nc(-c2ccc(OCCO)cc2)no1)c1ccccc1 [Compound 156, N-[(1S)-2-hydroxy-1-{3-[4-(2-hydroxyethoxy)phenyl]-1,2,4-oxadiazol-5-yl}ethyl] benzamide] | 40 to 80 | inhibition at 25 µM [2]: 74% |
| O=C(N[C@@H](CO)c1nc(-c2ccc(C(F)(F)F)cc2)no1)c1cc(F)cc(F)c1 [Compound 196, 3,5-difluoro-N-[(1S)-2-hydroxy-1-{3-[4-(trifluoromethyl)phenyl]-1,2,4-oxadiazol-5-yl}ethyl]benzamide] | > 80 |  |
| O=C(NC(CO)c1nc(-c2ccc(C(F)(F)F)cc2)no1)c1cc2ccccc2[nH]1 (stereo not drawn) [Compound 182, N-(2-hydroxy-1-{3-[4-(trifluoromethyl)phenyl]-1,2,4-oxadiazol-5-yl}ethyl)-1H-indole-2-carboxamide] | 40 to 80 | inhibition at 25 µM [2]: 64% |
| O=C(N[C@@H](CO)c1nc(-c2ccc(-c3ccccc3)s2)no1)c1ccc(F)cc1 [Compound 248, 4-fluoro-N-[(1S)-2-hydroxy-1-[3-(5-phenylthiophen-2-yl)-1,2,4-oxadiazol-5-yl]ethyl]benzamide] | 40 to 80 |  |
| O=C(N[C@@H](CO)c1nc(-c2ccc(C(F)(F)F)cc2)no1)c1c(F)cccc1F [Compound 197, 2,6-difluoro-N-[(1S)-2-hydroxy-1-{3-[4-(trifluoromethyl)phenyl]-1,2,4-oxadiazol-5-yl}ethyl]benzamide] | 40 to 80 | inhibition at 25 µM [2]: 70% |
| CCOCCOc1ccc(C(=O)N[C@@H](CO)c2nc(-c3ccc(OC(F)(F)F)cc3)no2)cc1 [Compound 169, 4-(2-ethoxyethoxy)-N-[(1S)-2-hydroxy-1-{3-[4-(trifluoromethoxy)phenyl]-1,2,4-oxadiazol-5-yl}ethyl] benzamide] | 40 to 80 |  |
| COc1ccc(-c2noc([C@H](CO)NC(=O)c3ccc(Cl)cc3)n2)cc1 [Compound 125, (S)-4-chloro-N-(2-hydroxy-1-(3-(4-methoxyphenyl)-1,2,4-oxadiazol-5-yl)ethyl)benzamide] | > 80 | inhibition at 5 µM (@5 μM, read-out: ThT Inhibitory activity (% inhibition)): 59%; inhibition at 25 µM [2]: 88% |
| CN(Cc1ccccc1)C(=O)CCc1nc(-c2ccc3c(c2)OCCO3)no1 [Compound 16, N-benzyl-3-{3-(2,3-dihydrobenzo[b][1,4]dioxin-6-yl)-1,2,4-oxadiazol-5-yl}-N-methylpropanamide] | < 40 |  |
| O=C(N[C@@H](CO)c1nc(-c2c[nH]c3ccc(Cl)cc23)no1)c1ccc(N2CCCC2)cc1 [Compound 253, N-[(1S)-1-[3-(5-chloro-1H-indol-3-yl)-1,2,4-oxadiazol-5-yl]-2-hydroxyethyl]-4-(pyrrolidin-1-yl) benzamide] | 40 to 80 |  |
| O=C1CC(c2nc(-c3ccc(OCF)cc3)no2)CN1c1ccc(Cl)cc1 (stereo not drawn) [Compound 53, 1-(4-chlorophenyl)-4-[3-{4-(fluoromethoxy)phenyl}-1,2,4-oxadiazol-5-yl]pyrrolidin-2-one] | 40 to 80 |  |
| O=C(N[C@@H](CO)c1nc(-c2c[nH]c3ccc(F)cc23)no1)c1ccc(F)cc1 [Compound 234] | 40 to 80 |  |
| Cl.O=C(N[C@@H](CO)c1nc(-c2ccc(C(F)(F)F)cn2)no1)c1ccc(Cl)cc1 [Compound 207, 4-chloro-N-[(1S)-2-hydroxy-1-{3-[5-(trifluoromethyl)pyridin-2-yl]-1,2,4-oxadiazol-5-yl}ethyl]benzamide hydrochloride] |  | Inhibitory activity ABC evaluation (inhibition rate against amyloid fibril formation, final concentration of the compound 25 μM): A (80% or more was evaluated as A) |
| O=C1C[C@@H](c2nc(-c3ccc(OC(F)(F)F)cc3)no2)N(C(=O)c2ccc(Cl)cc2)C1 [Compound 57, (S)-1-(4-chlorobenzoyl)-5-{3-[4-(trifluoromethoxy)phenyl]-1,2,4-oxadiazol-5-yl}pyrrolidin-3-one] | < 40 |  |
| O=C(N[C@@H](CO)c1nc(-c2c[nH]c3ccccc23)no1)c1ccc(F)cc1 [Compound 211, 4-fluoro-N-[(1S)-2-hydroxy-1-[3-(1H-indol-3-yl)-1,2,4-oxadiazol-5-yl]ethyl]benzamide] | > 80 | inhibition at 25 µM [2]: 89% |
